Source: US6355799B1, “Substituted benzene compounds, process for their preparation, and herbicidal and defoliant compositions containing them” (ISK Americas Incorporated, priority 1997, dated 2002)

Experiments:
Assay type in all cases: in vivo
[1] = system: field corn (Zea mays L., var. Dekalb 535, CORN); experiment: Pre-emerge test, crop safety; settings: rated 14 days after application, 0 = no damage, 100 = complete death
In short: (§1)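 Sandy loam pots; pre-emerge: sown 1 d pre-spray, surface-watered after, then bottom-watered. Post-emerge: sown 8–21 d before, 2–3 leaf stage, + 0.25% v/v NIS, bottom-watered. Acetone, 187 l/ha track spray, 15–1000 g ai/ha. 0–100 injury score, day 14.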

[2] = system: upland rice (Oryza sp., var. Tebonnet, RICE); experiment: Pre-emerge test, crop safety; settings: rated 14 days after application, 0 = no damage, 100 = complete death
In short: as §1

[3] = system: johnsongrass (Sorghum halepense, SORHA); experiment: Post-emerge test, greenhouse herbicide activity screening; settings: post-emerge, 14 days after application, rating scale 0-100
In short: (§2)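 Rating: 0–100 visual injury, 14 DAA. Application: acetone, 187 l/ha, 15–1000 g ai/ha, flat-fan track sprayer with nozzle 40–45 cm above soil or canopy. Post-emerge runs used 0.25% v/v surfactant on 2–3 leaf plants.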

[4] = system: redroot pigweed (Amaranthus retroflexus, AMARE); experiment: as above; settings: post-emerge, 14 days after application, rating scale 0-100
In short: as §2

[5] = system: large crabgrass (Digitaria sanguinalis, DIGSA); experiment: as above; settings: post-emerge, 14 days after application, rating scale 0-100
In short: as §2

[6] = system: sicklepod (Cassia obtusifolia, CASOB); experiment: as above; settings: post-emerge, 14 days after application, rating scale 0-100
In short: as §2

[7] = system: velvetleaf (Abutilon theophrasti, ABUTH); experiment: as above; settings: post-emerge, 14 days after application, rating scale 0-100
In short: as §2

[8] = system: green foxtail (Setaria viridis, SETVI); experiment: as above; settings: post-emerge, 14 days after application, rating scale 0-100
In short: as §2

[9] = system: lambsquarters (Chenopodium album, CHEAL); experiment: as above; settings: post-emerge, 14 days after application, rating scale 0-100
In short: as §2

[10] = system: barnyardgrass (Echinochloa crus-galli, ECHCG); experiment: as above; settings: post-emerge, 14 days after application, rating scale 0-100
In short: as §2

[11] = system: ivyleaf morningglory (Ipomoea hederacea, IPOHE); experiment: as above; settings: post-emerge, 14 days after application, rating scale 0-100
In short: as §2

[12] = system: field corn (Zea mays L., var. Dekalb 535, CORN); experiment: Post-emerge test, crop safety; settings: post-emerge, 14 days after application, rating scale 0-100
In short: (§3)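 Applied at 15–1000 g ai/ha from acetone in 187 l/ha spray volume. Post-emergence applications included 0.25% v/v non-ionic surfactant and reached plants sown 8–21 days before. Pre-emergence applications were incorporated by surface watering. Efficacy or crop damage was rated on a 0–100 scale after 14 days.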

[13] = system: upland rice (Oryza sp., var. Tebonnet, RICE); experiment: Post-emerge test, crop safety; settings: post-emerge, 14 days after application, rating scale 0-100
In short: as §3

[14] = system: johnsongrass (Sorghum halepense, SORHA); experiment: Pre-emerge test, greenhouse herbicide activity screening; settings: rated 14 days after application, 0 = no damage, 100 = complete death
In short: as §3

[15] = system: large crabgrass (Digitaria sanguinalis, DIGSA); experiment: as above; settings: rated 14 days after application, 0 = no damage, 100 = complete death
In short: as §3

[16] = system: sicklepod (Cassia obtusifolia, CASOB); experiment: as above; settings: rated 14 days after application, 0 = no damage, 100 = complete death
In short: as §3

[17] = system: velvetleaf (Abutilon theophrasti, ABUTH); experiment: as above; settings: rated 14 days after application, 0 = no damage, 100 = complete death
In short: as §3

[18] = system: green foxtail (Setaria viridis, SETVI); experiment: as above; settings: rated 14 days after application, 0 = no damage, 100 = complete death
In short: as §3

[19] = system: lambsquarters (Chenopodium album, CHEAL); experiment: as above; settings: rated 14 days after application, 0 = no damage, 100 = complete death
In short: as §3

[20] = system: barnyardgrass (Echinochloa crus-galli, ECHCG); experiment: as above; settings: rated 14 days after application, 0 = no damage, 100 = complete death
In short: as §3

[21] = system: ivyleaf morningglory (Ipomoea hederacea, IPOHE); experiment: as above; settings: rated 14 days after application, 0 = no damage, 100 = complete death
In short: as §3

[22] = system: redroot pigweed (Amaranthus retroflexus, AMARE); experiment: as above; settings: rated 14 days after application, 0 = no damage, 100 = complete death
In short: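 Plants grown in 10 cm pots of sandy loam mix received acetone-dissolved compounds through a moving flat-fan nozzle. Doses ranged from 15 to 1000 g ai/ha. Pre-emerge pots were seeded one day earlier, post-emerge pots 8–21 days earlier. Fourteen days on, each pot was graded 0–100 for damage.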

## COc1c(Cl)cc(F)c(-n2c(=O)cc(C(F)(F)F)n(C)c2=O)c1N(C(=O)C=Cc1ccccc1Cl)C(=O)C=Cc1ccccc1Cl [2-83]
[1]; 63 g ai/ha
  Pre-emerge phytotoxicity rating (0-100), crop damage, CORN: 0
[1]; 250 g ai/ha
  Pre-emerge phytotoxicity rating (0-100), crop damage, CORN: 0
[2]; 63 g ai/ha
  Pre-emerge phytotoxicity rating (0-100), crop damage, RICE: 0
[2]; 250 g ai/ha
  Pre-emerge phytotoxicity rating (0-100), crop damage, RICE: 0
[3]; 63 g ai/ha
  phytotoxicity rating SORHA: 0
[3]; 250 g ai/ha
  phytotoxicity rating SORHA: 0
[4]; 63 g ai/ha
  phytotoxicity rating AMARE: 40
[4]; 250 g ai/ha
  phytotoxicity rating AMARE: 90
[5]; 63 g ai/ha
  phytotoxicity rating DIGSA: 0
[5]; 250 g ai/ha
  phytotoxicity rating DIGSA: 0
[6]; 63 g ai/ha
  phytotoxicity rating CASOB: 0
[6]; 250 g ai/ha
  phytotoxicity rating CASOB: 0
[7]; 63 g ai/ha
  phytotoxicity rating ABUTH: 50
[7]; 250 g ai/ha
  phytotoxicity rating ABUTH: 70
[8]; 63 g ai/ha
  phytotoxicity rating SETVI: 0
[8]; 250 g ai/ha
  phytotoxicity rating SETVI: 0
[9]; 63 g ai/ha
  phytotoxicity rating CHEAL: 20
[9]; 250 g ai/ha
  phytotoxicity rating CHEAL: 50
[10]; 63 g ai/ha
  phytotoxicity rating ECHCG: 0
[10]; 250 g ai/ha
  phytotoxicity rating ECHCG: 0
[11]; 63 g ai/ha
  phytotoxicity rating IPOHE: 10
[11]; 250 g ai/ha
  phytotoxicity rating IPOHE: 20
[12]; 63 g ai/ha
  phytotoxicity rating CORN: 0
[12]; 250 g ai/ha
  phytotoxicity rating CORN: 0
[13]; 63 g ai/ha
  phytotoxicity rating RICE: 100
[13]; 250 g ai/ha
  phytotoxicity rating RICE: 0
[14]; 63 g ai/ha
  Pre-emerge Herbicidal Activity, phytotoxicity rating (0-100), SORHA: 0
[14]; 250 g ai/ha
  Pre-emerge Herbicidal Activity, phytotoxicity rating (0-100), SORHA: 20
[15]; 63 g ai/ha
  Pre-emerge Herbicidal Activity, phytotoxicity rating (0-100), DIGSA: 0
[15]; 250 g ai/ha
  Pre-emerge Herbicidal Activity, phytotoxicity rating (0-100), DIGSA: 30
[16]; 63 g ai/ha
  Pre-emerge Herbicidal Activity, phytotoxicity rating (0-100), CASOB: 0
[16]; 250 g ai/ha
  Pre-emerge Herbicidal Activity, phytotoxicity rating (0-100), CASOB: 0
[17]; 63 g ai/ha
  Pre-emerge Herbicidal Activity, phytotoxicity rating (0-100), ABUTH: 10
[17]; 250 g ai/ha
  Pre-emerge Herbicidal Activity, phytotoxicity rating (0-100), ABUTH: 100
[18]; 63 g ai/ha
  Pre-emerge Herbicidal Activity, phytotoxicity rating (0-100), SETVI: 0
[18]; 250 g ai/ha
  Pre-emerge Herbicidal Activity, phytotoxicity rating (0-100), SETVI: 40
[19]; 63 g ai/ha
  Pre-emerge Herbicidal Activity, phytotoxicity rating (0-100), CHEAL: 30
[19]; 250 g ai/ha
  Pre-emerge Herbicidal Activity, phytotoxicity rating (0-100), CHEAL: 90
[20]; 63 g ai/ha
  Pre-emerge Herbicidal Activity, phytotoxicity rating (0-100), ECHCG: 0
[20]; 250 g ai/ha
  Pre-emerge Herbicidal Activity, phytotoxicity rating (0-100), ECHCG: 0
[21]; 63 g ai/ha
  Pre-emerge Herbicidal Activity, phytotoxicity rating (0-100), IPOHE: 0
[21]; 250 g ai/ha
  Pre-emerge Herbicidal Activity, phytotoxicity rating (0-100), IPOHE: 0
[22]; 63 g ai/ha
  Pre-emerge Herbicidal Activity, phytotoxicity rating (0-100), AMARE: 60
[22]; 250 g ai/ha
  Pre-emerge Herbicidal Activity, phytotoxicity rating (0-100), AMARE: 100

## COc1c(Cl)cc(F)c(-n2c(=O)cc(C(F)(F)F)n(C)c2=O)c1NC(=O)C=Cc1ccc(Cl)cc1 [2-84]
[1]; 63 g ai/ha
  Pre-emerge phytotoxicity rating (0-100), crop damage, CORN: 0
[1]; 250 g ai/ha
  Pre-emerge phytotoxicity rating (0-100), crop damage, CORN: 0
[2]; 63 g ai/ha
  Pre-emerge phytotoxicity rating (0-100), crop damage, RICE: 0
[2]; 250 g ai/ha
  Pre-emerge phytotoxicity rating (0-100), crop damage, RICE: 0
[3]; 63 g ai/ha
  phytotoxicity rating SORHA: 0
[3]; 250 g ai/ha
  phytotoxicity rating SORHA: 0
[4]; 63 g ai/ha
  phytotoxicity rating AMARE: 80
[4]; 250 g ai/ha
  phytotoxicity rating AMARE: 100
[5]; 63 g ai/ha
  phytotoxicity rating DIGSA: 0
[5]; 250 g ai/ha
  phytotoxicity rating DIGSA: 0
[6]; 63 g ai/ha
  phytotoxicity rating CASOB: 20
[6]; 250 g ai/ha
  phytotoxicity rating CASOB: 100
[7]; 63 g ai/ha
  phytotoxicity rating ABUTH: 30
[7]; 250 g ai/ha
  phytotoxicity rating ABUTH: 100
[8]; 63 g ai/ha
  phytotoxicity rating SETVI: 30
[8]; 250 g ai/ha
  phytotoxicity rating SETVI: 0
[9]; 63 g ai/ha
  phytotoxicity rating CHEAL: 30
[9]; 250 g ai/ha
  phytotoxicity rating CHEAL: 80
[10]; 63 g ai/ha
  phytotoxicity rating ECHCG: 0
[10]; 250 g ai/ha
  phytotoxicity rating ECHCG: 0
[11]; 63 g ai/ha
  phytotoxicity rating IPOHE: 30
[11]; 250 g ai/ha
  phytotoxicity rating IPOHE: 70
[12]; 63 g ai/ha
  phytotoxicity rating CORN: 10
[12]; 250 g ai/ha
  phytotoxicity rating CORN: 10
[13]; 63 g ai/ha
  phytotoxicity rating RICE: 0
[13]; 250 g ai/ha
  phytotoxicity rating RICE: 20
[14]; 63 g ai/ha
  Pre-emerge Herbicidal Activity, phytotoxicity rating (0-100), SORHA: 0
[14]; 250 g ai/ha
  Pre-emerge Herbicidal Activity, phytotoxicity rating (0-100), SORHA: 0
[15]; 63 g ai/ha
  Pre-emerge Herbicidal Activity, phytotoxicity rating (0-100), DIGSA: 00
[15]; 250 g ai/ha
  Pre-emerge Herbicidal Activity, phytotoxicity rating (0-100), DIGSA: 0
[16]; 63 g ai/ha
  Pre-emerge Herbicidal Activity, phytotoxicity rating (0-100), CASOB: 0
[16]; 250 g ai/ha
  Pre-emerge Herbicidal Activity, phytotoxicity rating (0-100), CASOB: 0
[17]; 63 g ai/ha
  Pre-emerge Herbicidal Activity, phytotoxicity rating (0-100), ABUTH: 0
[17]; 250 g ai/ha
  Pre-emerge Herbicidal Activity, phytotoxicity rating (0-100), ABUTH: 80
[18]; 63 g ai/ha
  Pre-emerge Herbicidal Activity, phytotoxicity rating (0-100), SETVI: 0
[18]; 250 g ai/ha
  Pre-emerge Herbicidal Activity, phytotoxicity rating (0-100), SETVI: 50
[19]; 63 g ai/ha
  Pre-emerge Herbicidal Activity, phytotoxicity rating (0-100), CHEAL: 40
[19]; 250 g ai/ha
  Pre-emerge Herbicidal Activity, phytotoxicity rating (0-100), CHEAL: 100
[20]; 63 g ai/ha
  Pre-emerge Herbicidal Activity, phytotoxicity rating (0-100), ECHCG: 0
[20]; 250 g ai/ha
  Pre-emerge Herbicidal Activity, phytotoxicity rating (0-100), ECHCG: 0
[21]; 63 g ai/ha
  Pre-emerge Herbicidal Activity, phytotoxicity rating (0-100), IPOHE: 0
[21]; 250 g ai/ha
  Pre-emerge Herbicidal Activity, phytotoxicity rating (0-100), IPOHE: 0
[22]; 63 g ai/ha
  Pre-emerge Herbicidal Activity, phytotoxicity rating (0-100), AMARE: 80
[22]; 250 g ai/ha
  Pre-emerge Herbicidal Activity, phytotoxicity rating (0-100), AMARE: 100
